Among the test systems are T47D; HCC 2998; OVCAR-4; NCI-H460; UO-31; Malme-3M; CAKI-1; UACC-257; SK-MEL-2; UACC-62; SF-295; K562; M14; SK-OV-3; HL-60; SF-539; PC-3; KM12.
Holding throughout (experiment): NCI anticancer screen, dose series, 48 h

The results in this text go back to ChEMBL document CHEMBL1201862, “PubChem BioAssay data set” (2004).

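Tested at 5 concentrations; 48 h exposure; 96-well plates; endpoints linearly interpolated, else capped at highest concentration. At the GI50, growth is halved.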 Active and inactive are the calls of the source. Cut-off read from the data, not from the text of the source: active = GI50 up to about 1.1 µM and inactive = higher.

Consider `CCCCCCCCOCC1S(=O)(=O)OCCOS1(=O)=O`, for which the GI50 in the test on T47D, in the test on HCC 2998, in the test on OVCAR-4, in the test with NCI-H460, in the test on UO-31 and with Malme-3M was > 100 µM (inactive) throughout. Moreover, the GI50 with CAKI-1, with UACC-257, in the test with SK-MEL-2, in the test on UACC-62, with SF-295 and in the test with K562 was > 100 µM (inactive) each time. Also, the GI50 in the test with M14, in the test with SK-OV-3, in the test with HL-60, in the test on SF-539 and with PC-3 was > 100 µM (inactive) each time.

On to `COc1ccc(/C=C2\Sc3nnc(-c4ccccc4)n3N=C2c2cc(F)c(Cl)cc2Cl)cc1OC`, for which the GI50 with T47D was 29.6 µM (inactive); in the test with KM12, 26.7 µM (inactive); with HCC 2998, 14.3 µM (inactive); with OVCAR-4 it was 18.2 µM (inactive); with NCI-H460, > 100 µM (inactive); with UO-31, 31.1 µM (inactive). The GI50 in the test with CAKI-1 was 31 µM (inactive); in the test on UACC-257 it was > 100 µM (inactive); with SK-MEL-2 it was > 100 µM (inactive); with SF-295 it was > 100 µM (inactive); with K562 it was 9.86 µM (inactive); with M14, 29.3 µM (inactive). The GI50 in the test on SK-OV-3 is > 100 µM (inactive); in the test on HL-60, 0.573 µM (active); with SF-539 it was > 100 µM (inactive); in the test on PC-3, 66.2 µM (inactive).

On to `CCN(CC)CCn1c2ccccc2c(=O)c2c(OC)ccc(OC)c21`, for which the GI50 with KM12 was 56.9 µM (inactive); in the test with OVCAR-4 it was > 100 µM (inactive); in the test on NCI-H460, 41.9 µM (inactive); in the test on UO-31, 43.9 µM (inactive); with Malme-3M, 77.4 µM (inactive); in the test with CAKI-1, 68.5 µM (inactive). In addition, the GI50 was 45.8 µM (inactive) in the test with UACC-257; > 100 µM (inactive) in the test on SK-MEL-2; > 10 µM (inactive) in the test on UACC-62; 61.2 µM (inactive) in the test on SF-295; 35.3 µM (inactive) in the test with K562; > 100 µM (inactive) with M14. Besides, the GI50 with SK-OV-3 is > 10 µM (inactive); in the test on HL-60, 84.3 µM (inactive); in the test on SF-539, 39.1 µM (inactive).

Regarding `CN(N=O)N1C(=O)SCC(c2ccccc2)(c2ccccc2)C1=O`, the GI50 with T47D is 67.8 µM (inactive); in the test with KM12, 30.1 µM (inactive); with HCC 2998 it was 89.1 µM (inactive); in the test on NCI-H460, 9.62 µM (inactive); with UO-31, 25.8 µM (inactive); in the test with Malme-3M, 34.1 µM (inactive). The GI50 in the test on CAKI-1 was 46.3 µM (inactive); with UACC-257 it was 64.3 µM (inactive); with SK-MEL-2, 18.9 µM (inactive); in the test with UACC-62, 37.8 µM (inactive); in the test with SF-295, 35.6 µM (inactive); with K562, 65.2 µM (inactive). In addition, the GI50 with M14 was 37.5 µM (inactive); with SK-OV-3, 25.2 µM (inactive); with HL-60, 46.1 µM (inactive); in the test with SF-539, 21.9 µM (inactive); with PC-3 it was 42.4 µM (inactive).

Consider `COC(=O)C(C)(C)[C@@H]1OC(=O)N(S(=O)(=O)c2c(C)cc(C)cc2C)[C@H]1C(C)C`, for which the GI50 in the test with T47D is 63.5 µM (inactive); in the test with KM12, 91.4 µM (inactive); in the test with HCC 2998, > 100 µM (inactive); in the test on OVCAR-4, 98.2 µM (inactive); with NCI-H460, 55 µM (inactive); in the test with UO-31 it was > 100 µM (inactive). The GI50 with Malme-3M was > 100 µM (inactive); in the test with UACC-257, 60.3 µM (inactive); in the test on SK-MEL-2, 95.7 µM (inactive); with UACC-62 it was > 100 µM (inactive); with SF-295, > 100 µM (inactive); with K562 it was > 100 µM (inactive). In addition, the GI50 was 88.1 µM (inactive) with M14; > 100 µM (inactive) in the test with SK-OV-3; 23.6 µM (inactive) in the test on HL-60; > 100 µM (inactive) in the test with SF-539; 32.7 µM (inactive) in the test on PC-3.

In the case of `CC(C)(C)OC(=O)N[C@H]1CCN(C2CCCCC2)C1=O`, the GI50 in the test on HCC 2998, with NCI-H460, in the test on UO-31, in the test with SK-MEL-2, in the test on UACC-62 and with K562 was > 100 µM (inactive) each time. Moreover, the GI50 in the test with M14, in the test on SK-OV-3, in the test with HL-60, with SF-539 and in the test with PC-3 was > 100 µM (inactive) in each case.

As for `OC1(CCc2ccccc2)COC(C(F)(F)F)(C(F)(F)F)C1` (stereo not drawn), the GI50 in the test with T47D, with KM12, in the test on HCC 2998, in the test on OVCAR-4, in the test with NCI-H460 and in the test on UO-31 was > 100 µM (inactive) throughout. The GI50 in the test on Malme-3M, with CAKI-1, with SK-MEL-2, in the test on UACC-62, in the test with SF-295 and with K562 was > 100 µM (inactive) throughout. Also, the GI50 in the test on M14, in the test with SK-OV-3, in the test on HL-60, in the test with SF-539 and in the test on PC-3 was > 100 µM (inactive) throughout.

With `CC(=O)OCC1OC(n2c3c(c(-c4ccc(Cl)cc4)c(C#N)c2=S)CCCC3)C(OC(C)=O)C(OC(C)=O)C1OC(C)=O` (stereo not drawn), the GI50 in the test with T47D was 36.7 µM (inactive); with KM12 it was 71.4 µM (inactive); in the test with HCC 2998, > 100 µM (inactive); in the test with OVCAR-4 it was 25.5 µM (inactive); with NCI-H460, 42.5 µM (inactive); in the test with UO-31, 4.4 µM (inactive). In addition, the GI50 in the test on Malme-3M was 56.8 µM (inactive); in the test with UACC-257, 51.9 µM (inactive); in the test on SK-MEL-2, 30.6 µM (inactive); with UACC-62, 23.3 µM (inactive); with SF-295, 37.9 µM (inactive); in the test on K562, 44 µM (inactive). The GI50 is 81.1 µM (inactive) with M14; 75.2 µM (inactive) with SK-OV-3; 64.9 µM (inactive) in the test on HL-60; 74.5 µM (inactive) with SF-539; 25.5 µM (inactive) in the test on PC-3.

With `CC1=NC(C)(C)N(O)C1(C)C`, the GI50 with T47D, in the test with KM12, with HCC 2998, with OVCAR-4, in the test on NCI-H460 and in the test with UO-31 was > 100 µM (inactive) throughout. In addition, the GI50 in the test on Malme-3M, in the test with SK-MEL-2, with UACC-62, in the test with SF-295, in the test with K562 and with M14 was > 100 µM (inactive) throughout. Also, the GI50 in the test with SK-OV-3, with HL-60, with SF-539 and in the test with PC-3 was > 100 µM (inactive) each time.
